# According to the NIST ThermoML archive (doi:10.1016/j.fluid.2017.03.012):
# Numbers after ± are expanded uncertainties.
# Key:
# [1] = for Normal melting temperature: DTA; for Triple point temperature: Crystal 2, DSC
# [2] = Molar enthalpy of transition or fusion; details: DSC
Normal melting temperature ([1]; Crystal) [°C],Molar enthalpy of transition or fusion ([2]; Crystal) [kcal/mol],Normal melting temperature ([1]; Crystal 1) [°C],Triple point temperature [1] [K],Molar enthalpy of transition or fusion ([2]; Crystal 1) [kcal/mol],Molar enthalpy of transition or fusion ([2]; Crystal 2) [kcal/mol],SMILES
63.8 ± 0.53,17 ± 2.08,–,–,–,–,CCCCCCCCCCCCCCCCCCCCO [1-eicosanol]
–,–,56.2 ± 0.53,319.35 ± 0.81,12.4 ± 1.51,6.54 ± 0.789,CCCCCCCCCCCCCCCCCCO [1-octadecanol]
35.03 ± 0.53,17.3 ± 2.1,–,–,–,–,CCCCCCCCCCCCCCCCCCCC [eicosane]
–,–,48.06 ± 0.53,319.35 ± 0.81,14.6 ± 1.77,8.08 ± 0.98,CCCCCCCCCCCCCCCCCCCCCCCC [tetracosane]

SMILES,Normal melting temperature ([1]; Crystal) [°C],Molar enthalpy of transition or fusion ([2]; Crystal) [kcal/mol],Normal melting temperature ([1]; Crystal 1) [°C],Triple point temperature [1] [K],Molar enthalpy of transition or fusion ([2]; Crystal 1) [kcal/mol],Molar enthalpy of transition or fusion ([2]; Crystal 2) [kcal/mol]
c1ccc(-c2ccccc2)cc1 [biphenyl],68.0 ± 0.53,4.66 ± 0.574,–,–,–,–
